US7989466B2, “Methods to inhibit or augment an inflammatory response” (Cambridge Enterprise Limited, priority 1999, dated 2011)
Positions of bridges follow the written chain, without caps; N, C: chain ends. Non-standard residues stand in square brackets, D forms with d. Residues, ends and D or L forms follow the SMILES beside them. No end group written: not given here.

Columns and labels:
[1] = Stability against acid hydrolysis and trypsin; assay type: in vitro ADME; conditions: 5 units trypsin for 2 hrs at 37° C.
Experimental: For example, to prepare a peptide 3 derivative, peptide 3(3-12)[MCP-1] was modified according to Jameson et al. (Nature, 368, 744 (1994)), which yielded CRD-Cys13Leu4Ile11peptide 3(3-12)[MCP-1] (FIG. 3). CRD-Cys13Leu4Ile11peptide 3(3-12)[MCP-1], which had very similar properties to peptide 3(1-12)[MCP-1] […] CRD-Cys13Leu4Ile11peptide 3(3-12)[MCP-1] was also resistant to hydrolysis in vivo and allowed therapeutically useful plasma concentrations to be achieved (>10 μM 24 hours after a single intraperitoneal dose of 1 mg of CRD-Cys13Leu4Ile11peptide 3(3-12)[MCP-1] in 250 μL saline).

CD4 T cells = conditions: 5 ng
∂-opioid receptors = target: T1, ∂-opioid receptors (Homo sapiens, UniProt P41143); assay: Opioid receptor membrane binding (3H-Diprenorphine)
T1 construct: purchased RBI/Sigma 0-116
Experimental: For opioid receptor binding, membranes (0-116, RBI/Sigma) are diluted into binding buffer (75 mM Tris pH 7.4, 12.5 mM MgCl2 and 2 mM EDTA). For example, 10 μl of membranes are diluted in 500 μl of binding buffer (i.e., 1:50 dilution), which is aliquoted into labelled tubes. Cold competitor or test competitor is added (e.g. 5 μl of 100× stock solution; 5 μl of 100 μM naltrindole solution (N-115, RBI/Sigma in DMSO). Radioligand is then added (^3H-Diprenorphine, TRK 1060, Amersham, 250 μCi in 250 μl, 10.5 μM at 95 Ci/mmol). For competition studies, 0.5 nM is used. A 100× stock (i.e., […]) is made by diluting the commercial stock 1:210 in binding buffer, and 5 μl is added to every tube. Control tubes have radioligand but no membranes. The mixtures are vortexed, then spun very briefly. The mixtures are then incubated for 1 hour at 27° C. in a water bath. The mixture is filtered through GF/C filters over a vacuum. Each filter is pre-soaked in polyethyleneimine (0.3% in water; add 1 ml of 10% stock (P-261; RBI/Sigma) to 33 ml of MilliQ water). The tubes are washed with 2-3 ml of wash buffer (50 mM Tris pH 7.4) and the wash filtered. The filters are then rinsed with 3×5 ml of wash buffer, air dried, placed in a scintillation vial and 4.5 ml of scintillant added. The activity on the filter is then determined.

CCR-2 = CCR-2 (Homo sapiens, UniProt P41597); assay: Competitive binding to CCR-2 on CHO cells; conditions: read-out: ED50, Binding to CCR-2
Experimental: A competitive binding assay was used to determine the binding of A-I to chemokine receptors. These experiments were performed under ‘Horuk’ conditions (Hesselgesser et al., J. Biol. Chem., 273, 15687 (1998)), except that CHO cells expressing CCR-2 or CXCR-2 (AIDS Reagent Program, MRC London) were used. In each case, the specific binding of 0.25 nM labeled ligand to the cells was determined as the counts bound which were competable by 100 nM cold ligand. In each experiment, A-I was added from a stock solution in DMSO (with <0.1% DMSO final concentration in the assay).

[2] = target: T2, Recombinant human latent TGF-β1 (Homo sapiens, UniProt P01137); assay: Latent TGF-β1 activation ELISA (R2X capture); assay type: biochemical; design: key: −: A minus indicates no detectable activity in the assay; +: The number of pluses is a qualitative indicating of the activity of each peptide in each assay; ++: The number of pluses is a qualitative indicating of the activity of each peptide in each assay; +++: The number of pluses is a qualitative indicating of the activity of each peptide in each assay; ++++: The number of pluses is a qualitative indicating of the activity of each peptide in each assay; +++++: The number of pluses is a qualitative indicating of the activity of each peptide in each assay; conditions: test peptide at 100 nM, 37° C., 90 minutes
T2 construct: purchased R&D Systems; host or cells: CHO cells
Experimental: To test whether a KXK tripeptide activates TGF-beta, a direct ELISA-type assay can be used. Recombinant human latent TGF-β1 produced in CHO cells (R&D Systems) was incubated with the test activator. For example, 200 ng of latent TGF-β1 (at 20 μg/ml) was incubated with test peptide at 100 nM final concentration at 37° C. for 90 minutes. Following incubation, the TGF-β is incubated with the recombinant extracellular domain of the Type II TGF-β receptor (R2X) which binds only the active and not the latent forms of TGF-β1 (Clin. Chim. Acta, 235, 11 (1995)). For example, 1 μg of purified R2X is coated onto a Maxisorp ELISA plate well in 50 μl of 100 mM sodium carbonate for 2 hours at 4° C., and non-specific protein binding then blocked incubation with 5% sucrose 5% Tween-20 in Tris-buffered saline for 1 hour at room temperature.
The TGF-β sample is then incubated with the coated and blocked wells for 2 hours at room temperature with shaking. Wells are washed 3 times quickly with Tris-buffered saline containing 0.05% Tween-20 between each incubation. If any of the latent TGF-β1 has been activated by the incubation with test peptide, it is captured by the R2X, while remaining latent TGF-β1 is washed away. Captured active TGF-β1 is then detected by incubation with a suitable detection agent, such as a peroxidase conjugated polyclonal anti-TGF-beta antibody. For example, the wells are incubated with 200 μl of BDA19 chicken anti-TGF-β1 antibody coupled to horseradish peroxidase for 90 minutes at room temperature with shaking. Any bound peroxidase is then detected using a suitable chromogenic substrate (e.g., K-BLUE TMB substrate solution). The amount of active TGF-β generated is estimated by interpolation of a standard curve constructed using known amounts of active TGF-β1 (R&D Systems).

[3] = tested on: chemokine receptors on the surface of Jurkat cells; assay: Binding to chemokine receptors on Jurkat cells; design: species or system human
Experimental: For Scatchard analysis, the absorbance readings at 450 nm were calibrated, by reference to a standard curve in which known amounts of labeled peptide were coupled to derivatized sepharose beads (activated thiol-sepharose 4B; Sigma T8512) via the cysteine residue in each peptide. Briefly, known amounts (1 fmol to 1 pmol) of biotin-labeled peptide were incubated with 1 mg of activated thiol-sepharose beads in 100 μl of PBS at 37° C. for 1 hour. Free activated thiols were then blocked by addition of cysteine to a final concentration of 10 mM. The peptide-conjugated beads were then washed 5 times in PBS and treated exactly as for the cells described above. The absorbance at 450 nm obtained when a known amount of peptide was coupled to the beads was used to construct a standard curve which was used to convert the absorbance readings obtained with cells into number of molecules of labeled peptide which had bound.

Sequence of CCR-2 (P41597 1-313 limits assumed): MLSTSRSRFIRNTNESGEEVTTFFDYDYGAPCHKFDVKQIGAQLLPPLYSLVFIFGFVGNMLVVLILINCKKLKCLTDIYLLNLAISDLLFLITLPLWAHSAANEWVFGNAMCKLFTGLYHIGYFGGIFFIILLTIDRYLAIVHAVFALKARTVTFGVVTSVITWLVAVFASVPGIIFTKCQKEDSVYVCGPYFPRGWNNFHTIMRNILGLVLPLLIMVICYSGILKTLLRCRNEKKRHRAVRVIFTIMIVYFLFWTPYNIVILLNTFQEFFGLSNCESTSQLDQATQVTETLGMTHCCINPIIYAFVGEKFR
T2 sequence (P01137 30-278 limits assumed): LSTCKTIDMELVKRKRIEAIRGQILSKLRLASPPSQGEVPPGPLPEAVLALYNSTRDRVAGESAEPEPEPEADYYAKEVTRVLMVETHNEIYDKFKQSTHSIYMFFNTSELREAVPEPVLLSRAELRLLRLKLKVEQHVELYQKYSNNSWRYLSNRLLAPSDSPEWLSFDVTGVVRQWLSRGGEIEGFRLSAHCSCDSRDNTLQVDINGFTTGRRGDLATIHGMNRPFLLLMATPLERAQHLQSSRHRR
T1 sequence (P41143 whole entry): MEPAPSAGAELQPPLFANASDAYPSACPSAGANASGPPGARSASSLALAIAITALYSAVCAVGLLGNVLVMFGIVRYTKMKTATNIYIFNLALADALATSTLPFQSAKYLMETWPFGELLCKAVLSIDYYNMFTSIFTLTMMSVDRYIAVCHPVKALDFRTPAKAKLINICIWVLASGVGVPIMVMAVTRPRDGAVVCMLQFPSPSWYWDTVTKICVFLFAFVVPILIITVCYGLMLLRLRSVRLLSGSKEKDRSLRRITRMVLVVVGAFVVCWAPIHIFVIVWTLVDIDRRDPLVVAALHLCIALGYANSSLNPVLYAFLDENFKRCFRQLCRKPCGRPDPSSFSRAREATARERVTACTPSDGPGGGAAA

## CC[C@@H](C)[C@H]1NC(=O)[C@@H](CCC(N)=O)NC(=O)[C@H](N)CSSC[C@H](C(N)=O)NC(=O)[C@@H](CC(C)C)NC(=O)[C@@H](CC(=O)O)NC(=O)[C@H]2CCCN2C(=O)[C@@H](CCCCN)NC(=O)[C@@H](CCC(N)=O)NC(=O)[C@@H](CCCCN)NC(=O)[C@@H](Cc2c[nH]c3ccccc23)NC1=O (H-[dC][dQ][dI][dW][dK][dQ][dK][dP][dD][dL][dC]-NH2; disulfide 1-11; N-terminus assumed)
[1]
  stability against enzymatic destruction: stable
CD4 T cells
  reduction of ConA proliferation of CD4 T cells: < 3%
∂-opioid receptors
  EC50: > 100000 nM

## C=CCCCCCCCCC(=O)N[C@H]1CCC(=O)NC1=O [A-I (NR58.4), [3S]-3-(undec-10-enoylamino)piperidine-2,6-dione]
CCR-2
  EC50: 5 nM

## NCCCC[C@H](NC(=O)[C@H](CCC(N)=O)NC(=O)[C@@H](N)CCCCN)C(=O)O [KQK]
[2]
  TGF-beta Activator: −

## SYRRITSSKCPKEAV [peptide 2(1-15)[MCP-1]]
[3]
  B, binding sites on Jurkat cells: 55,000 sites/cell
  Ka, chemokine receptors on the surface of Jurkat cells: 250 nM
